Test results reported in paper PMC11243320, “Tailoring Fibroblast-Activation Protein Targeting for Theranostics: A Comparative Preclinical Evaluation of the ^68Ga- and ^177Lu-Labeled Monomeric and Dimeric Fibroblast-Activation Protein Inhibitors DOTA.SA.FAPi and DOTAGA.(SA.FAPi)2” (Molecules, 2024).

Tested on: CAFs
Assay: Internalization studies in CAFs
Type: cell-based, human
Details: 37 °C
Method: For saturation studies, CAFs were incubated with increasing concentrations of the radiotracers (0.1–10 nM). For internalization studies, approximately 2.5 pmol of the radiotracers were added to CAFs followed by incubation for 15, 30, 60, 90, 120, 180 and 240 min for the ^68Ga-labeled or 30, 60, 120, 240 and 360 min for the ^177Lu-labeled radiotracers at 37 °C, 5% CO2. For the externalization studies, approximately 2.5 pmol of the ^177Lu-labeled radiotracers were added to CAFs followed by incubation for 2 h at 37 °C, 5% CO2. Afterward, the amount of the externalized activity from the CAFs was determined at 0, 10, 20, 30, 60, 120, 240, and 1440 min (Supplemental Data).
Saturation Binding Studies […]
for 0.5, 1, 2, 4 and 6 h at 37 °C, 5% CO2 for the 177Lu-labeled tracers. […] The radioactivity of the culture medium, the receptor bound, and the internal-ized fractions were measured in a γ-counter. […]
The radioactivity of the culture medium, the receptor bound , the internalized and the externalized fractions were measured in a γ -counter. The externalized fraction of radioactivity was ex-pressed as the percentage of the total internalized amount. […]

Row | SMILES | Total cell associated uptake (% of total applied radioactivity) (4 h) | Total cell associated uptake (% of total applied radioactivity) (6 h)
1 | N#C[C@@H]1CC(F)(F)CN1C(=O)CNC(=O)c1ccnc2ccc(OCCCCNc3c(NCCNC(=O)CN4CCN(CC(=O)[O-])CCN(CC(=O)[O-])CCN(CC(=O)[O-])CC4)c(=O)c3=O)cc12.[68Ga+3] [[^68Ga]Ga-DOTA.SA.FAPi] | 21.9 ± 1.2% | –
2 | N#C[C@@H]1CC(F)(F)CN1C(=O)CNC(=O)c1ccnc2ccc(OCCCCNc3c(NCCNC(=O)CN4CCN(CC(=O)[O-])CCN(CC(=O)[O-])CCN(CC(=O)[O-])CC4)c(=O)c3=O)cc12.[177Lu+3] [[^177Lu]Lu-DOTA.SA.FAPi] | – | 21.1 ± 1.1%
